Data as given in US20090304692A1, “TRIAZINE COMPOUNDS AS PI3 KINASE AND MTOR INHIBITORS” (Wyeth, priority 2008, published 2009).
Where “and” joins values, the source holds several entries; their conditions need not be identical. Equal entries are not always repeated. Where two headings read alike, the source gives them in different places.

Assays:
[1] = target: PI3K-γ (Homo sapiens, UniProt P48736); experiment: PI3K-gamma fluorescence polarization assay; details: read-out: IC50 PI3Kγ
[2] = target: PI3K-α (Homo sapiens, UniProt P42336); experiment: PI3K-alpha fluorescence polarization assay; details: read-out: IC50 PI3Kα
[3] = target: Human mTOR (FLAG-TOR) (Homo sapiens, UniProt P42345); experiment: mTOR kinase assay (DELFIA format, purified enzyme); format: biochemical; details: read-out: IC50 mTOR
[4] = test system: human breast MDA-MB-361 tumor cell line; experiment: In vitro cell culture growth assay (MTS), MDA-MB-361; format: cell-based; details: Homo sapiens, three days after drug treatment, read-out: IC50 MDA-MB-361
[5] = test system: human prostate PC3-mm2 tumor cell line; experiment: In vitro cell culture growth assay (MTS), PC3-mm2; format: cell-based; details: Homo sapiens, PC3MM2, 72 h, three days after drug treatment, read-out: IC50 PC3-mm2
[6] = MDA-MB-361, 72 h, MDA-MB-361 cells, MTS
[7] = MDA-MB-361, 72 h, MTS cell growth assay, MDA-MB-361 cells
[8] = MTS cell growth assay, PC3-mm2 cells
[9] = 72 h, MTS cell growth assay, MDA-MB-361 cells
[10] = MDA-MB-361, 72 h, MTS cell growth assay

Chain of PI3K-α (P42336 whole entry, species assumed): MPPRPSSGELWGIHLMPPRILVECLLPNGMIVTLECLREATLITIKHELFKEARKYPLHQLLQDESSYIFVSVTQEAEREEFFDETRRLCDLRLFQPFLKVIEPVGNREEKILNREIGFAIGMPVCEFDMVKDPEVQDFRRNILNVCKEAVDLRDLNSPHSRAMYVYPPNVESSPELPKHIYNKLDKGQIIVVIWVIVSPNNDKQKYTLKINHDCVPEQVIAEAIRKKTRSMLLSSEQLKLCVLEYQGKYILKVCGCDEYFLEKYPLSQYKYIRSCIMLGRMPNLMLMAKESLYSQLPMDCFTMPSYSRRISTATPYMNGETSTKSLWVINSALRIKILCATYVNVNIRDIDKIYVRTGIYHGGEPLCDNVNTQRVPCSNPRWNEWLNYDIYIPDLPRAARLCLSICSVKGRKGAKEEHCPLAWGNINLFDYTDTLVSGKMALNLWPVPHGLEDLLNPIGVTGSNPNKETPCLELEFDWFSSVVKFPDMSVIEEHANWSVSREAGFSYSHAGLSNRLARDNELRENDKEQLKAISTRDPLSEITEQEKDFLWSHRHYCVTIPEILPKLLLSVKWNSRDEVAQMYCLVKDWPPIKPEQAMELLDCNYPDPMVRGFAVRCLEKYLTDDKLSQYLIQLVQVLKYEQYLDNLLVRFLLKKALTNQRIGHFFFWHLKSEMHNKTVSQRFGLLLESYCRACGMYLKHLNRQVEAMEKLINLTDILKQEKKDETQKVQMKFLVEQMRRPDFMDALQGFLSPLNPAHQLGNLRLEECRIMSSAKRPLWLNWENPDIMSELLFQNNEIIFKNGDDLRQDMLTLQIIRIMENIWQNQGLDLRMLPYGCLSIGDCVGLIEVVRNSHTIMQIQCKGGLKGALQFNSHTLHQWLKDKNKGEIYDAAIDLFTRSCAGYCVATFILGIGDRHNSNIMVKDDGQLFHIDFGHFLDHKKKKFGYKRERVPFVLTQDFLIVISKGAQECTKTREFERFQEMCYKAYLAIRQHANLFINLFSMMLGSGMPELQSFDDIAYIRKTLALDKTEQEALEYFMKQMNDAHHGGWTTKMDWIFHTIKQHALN
Chain of PI3K-α (P27986 whole entry partner, species assumed): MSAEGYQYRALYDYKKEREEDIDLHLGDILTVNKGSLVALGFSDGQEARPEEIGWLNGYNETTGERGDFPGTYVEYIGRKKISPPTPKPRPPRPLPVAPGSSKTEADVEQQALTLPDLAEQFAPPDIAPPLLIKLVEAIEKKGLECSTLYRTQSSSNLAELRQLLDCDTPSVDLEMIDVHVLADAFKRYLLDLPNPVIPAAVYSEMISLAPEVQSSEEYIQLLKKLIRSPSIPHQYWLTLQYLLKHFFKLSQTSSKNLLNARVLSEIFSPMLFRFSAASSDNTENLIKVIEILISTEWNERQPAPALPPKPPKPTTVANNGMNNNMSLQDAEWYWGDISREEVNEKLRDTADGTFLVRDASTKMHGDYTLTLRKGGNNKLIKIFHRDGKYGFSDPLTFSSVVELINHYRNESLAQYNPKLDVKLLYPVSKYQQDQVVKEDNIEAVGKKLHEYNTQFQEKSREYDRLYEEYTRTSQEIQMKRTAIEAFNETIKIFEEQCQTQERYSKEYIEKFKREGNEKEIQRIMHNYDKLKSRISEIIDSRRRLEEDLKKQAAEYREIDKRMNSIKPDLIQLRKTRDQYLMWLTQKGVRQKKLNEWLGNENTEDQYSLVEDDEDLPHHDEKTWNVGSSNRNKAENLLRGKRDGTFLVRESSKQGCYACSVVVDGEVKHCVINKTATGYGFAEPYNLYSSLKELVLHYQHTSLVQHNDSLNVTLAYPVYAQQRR
Chain of Human mTOR (FLAG-TOR) (P42345 1360-2549 limits assumed): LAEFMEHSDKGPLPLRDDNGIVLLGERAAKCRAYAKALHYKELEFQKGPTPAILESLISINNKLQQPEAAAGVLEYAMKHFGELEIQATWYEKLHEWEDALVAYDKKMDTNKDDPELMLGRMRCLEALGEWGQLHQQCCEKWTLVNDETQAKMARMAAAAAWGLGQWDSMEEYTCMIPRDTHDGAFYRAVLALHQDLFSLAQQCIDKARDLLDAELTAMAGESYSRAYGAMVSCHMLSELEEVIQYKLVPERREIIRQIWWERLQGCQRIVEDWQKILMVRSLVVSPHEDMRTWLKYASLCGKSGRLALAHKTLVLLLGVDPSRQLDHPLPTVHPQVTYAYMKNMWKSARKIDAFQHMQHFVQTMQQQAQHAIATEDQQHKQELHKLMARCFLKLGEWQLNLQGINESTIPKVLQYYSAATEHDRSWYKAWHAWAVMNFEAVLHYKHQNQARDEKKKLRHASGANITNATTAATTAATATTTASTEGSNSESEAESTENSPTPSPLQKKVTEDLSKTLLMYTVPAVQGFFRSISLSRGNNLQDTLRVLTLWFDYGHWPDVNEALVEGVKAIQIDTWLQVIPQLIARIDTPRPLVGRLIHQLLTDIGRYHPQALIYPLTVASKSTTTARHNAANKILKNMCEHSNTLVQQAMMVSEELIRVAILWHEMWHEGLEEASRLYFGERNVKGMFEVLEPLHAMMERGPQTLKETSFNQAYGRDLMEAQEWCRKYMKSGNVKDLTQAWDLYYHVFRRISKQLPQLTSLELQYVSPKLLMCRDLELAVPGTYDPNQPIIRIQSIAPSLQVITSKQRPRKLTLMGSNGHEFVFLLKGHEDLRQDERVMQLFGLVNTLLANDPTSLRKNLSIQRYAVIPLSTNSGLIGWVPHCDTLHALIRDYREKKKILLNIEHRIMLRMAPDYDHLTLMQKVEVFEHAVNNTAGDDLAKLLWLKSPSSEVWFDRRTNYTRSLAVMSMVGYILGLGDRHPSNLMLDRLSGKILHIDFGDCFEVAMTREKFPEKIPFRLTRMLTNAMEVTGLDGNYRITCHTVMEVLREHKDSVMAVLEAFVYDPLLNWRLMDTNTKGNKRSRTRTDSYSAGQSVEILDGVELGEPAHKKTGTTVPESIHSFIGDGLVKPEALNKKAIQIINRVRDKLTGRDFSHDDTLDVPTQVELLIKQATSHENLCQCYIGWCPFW
Chain of PI3K-γ (P48736 whole entry, species assumed): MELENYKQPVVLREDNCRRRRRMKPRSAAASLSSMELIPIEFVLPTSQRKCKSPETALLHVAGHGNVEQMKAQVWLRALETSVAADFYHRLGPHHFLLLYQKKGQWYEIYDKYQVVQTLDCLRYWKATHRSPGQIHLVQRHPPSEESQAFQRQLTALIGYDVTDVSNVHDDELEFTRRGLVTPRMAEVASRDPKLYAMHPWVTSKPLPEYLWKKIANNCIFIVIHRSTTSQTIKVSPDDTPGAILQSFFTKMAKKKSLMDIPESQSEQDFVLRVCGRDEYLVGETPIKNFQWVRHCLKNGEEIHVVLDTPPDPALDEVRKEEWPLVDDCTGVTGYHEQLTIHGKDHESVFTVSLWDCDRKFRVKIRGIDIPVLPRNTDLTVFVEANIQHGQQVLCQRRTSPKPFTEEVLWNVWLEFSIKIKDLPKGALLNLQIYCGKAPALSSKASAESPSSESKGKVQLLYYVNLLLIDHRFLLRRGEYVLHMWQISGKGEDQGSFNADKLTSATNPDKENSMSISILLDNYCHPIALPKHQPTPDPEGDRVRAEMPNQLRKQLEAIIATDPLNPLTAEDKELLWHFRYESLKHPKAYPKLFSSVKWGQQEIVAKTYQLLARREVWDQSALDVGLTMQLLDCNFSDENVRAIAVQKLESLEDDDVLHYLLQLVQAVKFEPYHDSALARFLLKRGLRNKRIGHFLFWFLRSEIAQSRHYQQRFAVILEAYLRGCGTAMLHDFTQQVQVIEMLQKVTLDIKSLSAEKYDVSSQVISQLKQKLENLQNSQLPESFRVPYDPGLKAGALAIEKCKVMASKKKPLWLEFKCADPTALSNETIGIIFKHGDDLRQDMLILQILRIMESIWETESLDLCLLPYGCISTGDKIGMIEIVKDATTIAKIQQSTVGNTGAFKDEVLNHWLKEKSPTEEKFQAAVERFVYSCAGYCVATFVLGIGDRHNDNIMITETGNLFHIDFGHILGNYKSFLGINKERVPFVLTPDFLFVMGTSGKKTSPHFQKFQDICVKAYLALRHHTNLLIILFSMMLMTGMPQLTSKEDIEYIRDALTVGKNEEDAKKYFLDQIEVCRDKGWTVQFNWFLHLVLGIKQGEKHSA

IC50 [1] [nM]	IC50 [2] [nM]	IC50 [3]	IC50 [5, 8] [nM]	IC50 [4, 10] [nM]	IC50 ([5]; MTS cell growth assay) [nM]	SMILES	IC50 [4, 7] [nM]	other results
87	12	26 nM	173			CCN1CCN(C(=O)c2ccc(NC(=O)Nc3ccc(-c4nc(N5CCCC5)nc(N5CCOCC5)n4)cc3)cc2)CC1 [Example 606, 1-{4-[(4-ethylpiperazin-1-yl)carbonyl]phenyl}-3-[4-(4-morpholin-4-yl-6-pyrrolidin-1-yl-1,3,5-triazin-2-yl)phenyl]urea]	28	
85.5	23	6 nM	223			CN(C)C(=O)N1CCN(c2nc(-c3ccc(NC(=O)Nc4ccc(C(=O)O)cc4)cc3)nc(N3CCOCC3)n2)CC1 [Example 646, 4-{[(4-{4-[4-(dimethylcarbamoyl)piperazin-1-yl]-6-morpholin-4-yl-1,3,5-triazin-2-yl}phenyl)carbamoyl]amino}benzoic acid]	32	
85	48	16 nM		174	328	CCCCc1nc(-c2ccc(NC(=O)Nc3ccc(C=O)cc3)cc2)nc(N2CCOCC2)n1 [Example 255, 1-[4-(4-butyl-6-morpholin-4-yl-1,3,5-triazin-2-yl)phenyl]-3-(4-formylphenyl)urea]		
597	34	60 nM and 75.5 nM	1650	1350	1650	O=C(Nc1ccncc1)Nc1ccc(-c2nc(CCCN3CCCC3)nc(N3CCOCC3)n2)cc1 [Example 276, 1-{4-[4-morpholin-4-yl-6-(3-pyrrolidin-1-ylpropyl)-1,3,5-triazin-2-yl]phenyl}-3-pyridin-4-ylurea]		IC50 ([1]; listed as 733): 412 nM; IC50 ([2]; listed as 733): 31.5 nM
83.5	5	0.525 nM	405			CCNC(=O)N1CCC(Oc2nc(-c3ccc(NC(=O)Nc4ccncc4)cc3)nc(N3CCOCC3)n2)CC1 [Example 690, N-ethyl-4-[(4-morpholin-4-yl-6-{4-[(pyridin-4-ylcarbamoyl)amino]phenyl}-1,3,5-triazin-2-yl)oxy]piperidine-1-carboxamide]		IC50 [4, 9]: 112 nM
160	13	26 nM	> 1000			CN(C)CCNC(=O)c1ccc(NC(=O)Nc2ccc(-c3nc(NS(=O)(=O)c4ccccc4)nc(N4CCOCC4)n3)cc2)cc1 [Example 788, N-[2-(dimethylamino)ethyl]-4-{[(4-{4-morpholin-4-yl-6-[(phenylsulfonyl)amino]-1,3,5-triazin-2-yl}phenyl)carbamoyl]amino}benzamide]		IC50 [4, 9]: > 1000 nM
99	22	2.7 nM		122	142	O=C(Nc1ccc(F)cc1)Nc1ccc(-c2nc(N3CCOCC3)nc(N3CC4CCC(C3)O4)n2)cc1 [Example 24, 1-(4-fluorophenyl)-3-{4-[4-morpholin-4-yl-6-(8-oxa-3-azabicyclo[3.2.1]oct-3-yl)-1,3,5-triazin-2-yl]phenyl}urea]		
2.5	< 1.7	2.35 nM	16.5			CN1CCN(C(=O)Nc2ccc(NC(=O)Nc3ccc(-c4nc(N5CCOCC5)nc(N5CCOCC5)n4)cc3)cc2)CC1 [Example 498, N-[4-({[4-(4,6-dimorpholin-4-yl-1,3,5-triazin-2-yl)phenyl]carbamoyl}amino)phenyl]-4-methylpiperazine-1-carboxamide]	4	
30	3.1	1.9 nM				CN1CCN(C(=O)c2ccc(NC(=O)Nc3ccc(-c4nc(N5CCOCC5)nc(N5CC6CCC5CO6)n4)cc3)cc2)CC1 (stereo not drawn) [Example 813, 1-{4-[(4-methylpiperazin-1-yl)carbonyl]phenyl}-3-{4-[4-morpholin-4-yl-6-(2-oxa-5-azabicyclo[2.2.2]oct-5-yl)-1,3,5-triazin-2-yl]phenyl}urea]		IC50 [4, 6]: < 3.2 nM; IC50 ([5]; PC3-mm2 cells, MTS): 24 nM
56	5	1 nM		54	82	CC(C)Oc1nc(-c2ccc(NC(=O)Nc3ccncc3)cc2)nc(N2CCOCC2)n1 [Example 94, 1-[4-(4-isopropoxy-6-morpholin-4-yl-1,3,5-triazin-2-yl)phenyl]-3-pyridin-4-ylurea]		
63	4	2.5 nM		20	121	CCCCc1nc(-c2ccc(NC(=O)Nc3ccc(C(=O)NCCN(C)C)cc3)cc2)nc(N2CCOCC2)n1 [Example 231, 4-({[4-(4-butyl-6-morpholin-4-yl-1,3,5-triazin-2-yl)phenyl]carbamoyl}amino)-N-[2-(dimethylamino)ethyl]benzamide]		
43.5	3.5	1 nM	35			C[C@H]1COCCN1c1nc(-c2ccc(NC(=O)Nc3ccc(C(=O)NCCCN(C)C)cc3)cc2)nc(N2CCOCC2)n1 [Example 621, N-[3-(dimethylamino)propyl]-4-{[(4-{4-[(3S)-3-methylmorpholin-4-yl]-6-morpholin-4-yl-1,3,5-triazin-2-yl}phenyl)carbamoyl]amino}benzamide]		IC50 [4, 9]: 8 nM
127	20	6.6 nM and 9.3 nM	2430	1260	2430	Cc1ccc(-c2nc(-c3ccc(NC(=O)Nc4ccc(C(=O)O)cc4)cc3)nc(N3CCOCC3)n2)cc1 [Example 342, 4-[({4-[4-(4-methylphenyl)-6-morpholin-4-yl-1,3,5-triazin-2-yl]phenyl}carbamoyl)amino]benzoic acid]	1260	IC50 ([2]; listed as 527): 20.5 nM

SMILES	IC50 [1] [nM]	IC50 [2] [nM]	IC50 [3]	IC50 [5, 8] [nM]	IC50 [4, 10] [nM]	IC50 ([5]; MTS cell growth assay) [nM]	IC50 [4, 7] [nM]	other results
CCN1CCN(C(=O)c2ccc(NC(=O)Nc3ccc(-c4nc(N5CCOCC5)nc(N5C6CCCC5COC6)n4)cc3)cc2)CC1 [Example 804, 1-{4-[(4-ethylpiperazin-1-yl)carbonyl]phenyl}-3-{4-[4-morpholin-4-yl-6-(3-oxa-9-azabicyclo[3.3.1]non-9-yl)-1,3,5-triazin-2-yl]phenyl}urea]	59.5	6	0.425 nM					IC50 [4, 6]: 3 nM; IC50 ([5]; PC3-mm2 cells, MTS): 11 nM
O=C(Nc1ccccc1)Nc1ccc(-c2nc(N3CCOCC3)nc(N3C4CCC3CC(O)C4)n2)cc1 (stereo not drawn) [Example 685, 1-{4-[4-(3-hydroxy-8-azabicyclo[3.2.1]oct-8-yl)-6-morpholin-4-yl-1,3,5-triazin-2-yl]phenyl}-3-phenylurea]	26.5	7	0.825 nM	> 10000				IC50 [4, 9]: > 10000 nM
O=C(Nc1ccncc1)Nc1ccc(-c2nc(N3CCOCC3)nc(N3C4COCC3C(OCc3ccccc3)C4)n2)cc1 (stereo not drawn) [Example 819, 1-(4-{4-[6-(benzyloxy)-3-oxa-8-azabicyclo[3.2.1]oct-8-yl]-6-morpholin-4-yl-1,3,5-triazin-2-yl}phenyl)-3-pyridin-4-ylurea]	358	44	17 nM					IC50 ([4]; 72 h, MDA-MB-361 cells, MTS): 442 nM; IC50 ([5]; PC3-mm2 cells, MTS): 768 nM
CC(=O)c1ccc(NC(=O)Nc2ccc(-c3nc(N4CCOCC4)nc(N4C5CCC4COC5)n3)cc2)cc1 [Example 230, 1-(4-acetylphenyl)-3-{4-[4-morpholin-4-yl-6-(3-oxa-8-azabicyclo[3.2.1]oct-8-yl)-1,3,5-triazin-2-yl]phenyl}urea]	119	22	1.2 nM and 0.15 nM	< 31			< 31	IC50 ([1]; listed as 719): 96 nM; IC50 ([2]; listed as 719): 17.5 nM
O=C(Nc1ccc(C(=O)N2CCNCC2)cc1)Nc1ccc(-c2nc(N3CCOCC3)nc(N3C4CCCC3COC4)n2)cc1 [Example 793, 1-{4-[4-morpholin-4-yl-6-(3-oxa-9-azabicyclo[3.3.1]non-9-yl)-1,3,5-triazin-2-yl]phenyl}-3-[4-(piperazin-1-ylcarbonyl)phenyl]urea]	15	1	0.42 nM	26			2	
O=C(Nc1ccc(C(=O)N2CCC(N3CCCCC3)CC2)cc1)Nc1ccc(-c2nc(N3CCOCC3)nc(N3C4COCC3COC4)n2)cc1 [Example 777, 1-[4-(1,4′-bipiperidin-1′-ylcarbonyl)phenyl]-3-{4-[4-(3,7-dioxa-9-azabicyclo[3.3.1]non-9-yl)-6-morpholin-4-yl-1,3,5-triazin-2-yl]phenyl}urea]	39	4	0.265 nM	4			2	
O=C(Nc1ccc(C(=O)N2CCC(N3CCOCC3)CC2)cc1)Nc1ccc(-c2nc(N3CCOCC3)nc(N3C4CCC3COC4)n2)cc1 [Example 757, 1-{4-[4-morpholin-4-yl-6-(3-oxa-8-azabicyclo[3.2.1]oct-8-yl)-1,3,5-triazin-2-yl]phenyl}-3-{4-[(4-morpholin-4-ylpiperidin-1-yl)carbonyl]phenyl}urea]	37.5	5.5	0.28 nM	6			< 3	
